Test results from BindingDB's records for patent US20250188095 (Jiangsu Nhwa Pharmaceutical Co., 2025).

Target: T1, Orexin/Hypocretin receptor type 1 (Homo sapiens, UniProt O43613)
T1 sequence (O43613 whole entry): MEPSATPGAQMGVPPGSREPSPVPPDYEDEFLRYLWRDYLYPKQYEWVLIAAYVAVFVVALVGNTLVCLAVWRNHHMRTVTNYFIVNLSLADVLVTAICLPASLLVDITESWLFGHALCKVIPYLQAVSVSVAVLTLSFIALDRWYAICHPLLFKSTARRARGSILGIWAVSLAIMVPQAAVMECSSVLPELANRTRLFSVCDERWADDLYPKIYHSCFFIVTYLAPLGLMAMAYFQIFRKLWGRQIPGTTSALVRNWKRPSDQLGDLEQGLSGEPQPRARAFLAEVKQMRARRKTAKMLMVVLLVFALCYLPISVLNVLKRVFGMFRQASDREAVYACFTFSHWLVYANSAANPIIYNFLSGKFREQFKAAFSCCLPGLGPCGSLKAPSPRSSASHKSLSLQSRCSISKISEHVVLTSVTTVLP
Experiment: In Vitro Activity Assay
Experimental: The cells were centrifuged at 1000 rpm for 5 min, and the supernatant was discarded. 3 mL of PBS was added, and the mixture was gently pipetted to be mixed well. The cells were centrifuged again at 1000 rpm for 5 min, and the supernatant was discarded.

Cc1cc(C)nc(N2C[C@H]3CN(C(=O)c4c(-c5ccsc5)cn5ccccc45)C[C@H]3C2)n1 [US20250188095, Example 17]
IC50: > 1000 nM
